The subject of data set [1] is P. Aeruginosa and E. Aerogenes. Kind of data set: Example 1: pulp slurry bactericidal efficacy (modified ASTM E 600-91), biocide added 10 minutes prior to inoculation. In kind it is cell-based. The note with it: for Final Bacteria: inoculum 2×10^6 cfu/ml, 3 hours after inoculation. On the procedure: (§1) The addition of 5,5-dimethylhydantoin (DMH) to sodium hypochlorite solutions enhances the biocidal activity of sodium hypochlorite. The conditions of this experiment were a modification of ASTM E 600-91. Two biocide solutions were evaluated: NaOCl and NaOCl mixed with DMH in a 0.25:1 molar ratio. The NaOCl and the DMH were mixed prior to pulp introduction. The biocides were introduced to the pulp slurry 10 minutes prior to inoculation with 2×10^6 cfu/ml P. Aeruginosa and E. Aerogenes. The pulp slurry consisted of 1.3% ground aspen wood pulp and 200 ppm rosin adjusted to pH=5.0-5.5 with aluminum sulfate. Bacteria populations were measured 3 hours after pulp slurry inoculation. Final total halogen concentrations were measured at the time of bacterial population plating by sample centrifuging followed by standard DPD analyses. Biocides were neutralized with sodium thiosulfate prior to plating.

Data set [2] has as its system P. Aeruginosa and E. Aerogenes. Description: Example 2: bactericidal efficacy of NaOCl added to DMH-treated pulp slurry. It counts as cell-based. The note with it: for Final Bacteria: NaOCl added to pulp slurry (DMH-treated for 1:1 system). As for the experimental part: as §1
(§2) Prereaction of DMH with NaOCl as described in Example 1 was not required. The conditions of this experiment were in other respects the same as Example 1. The molar ratio in the pulp slurry was 1:1 NaOCl to DMH.

Data set [3] concerns P. Aeruginosa and E. Aerogenes. Description: Example 3: bactericidal efficacy in preinoculated pulp slurry samples. It counts as cell-based. The note with it: for Final Bacteria: pulp inoculated 5 minutes prior to biocide. On the procedure: as §1
(§3) The conditions were the same as Example 1 except that the pulp was inoculated with bacteria 5 minutes prior to biocide introduction as opposed to 10 minutes after. Also the NaOCl to DMH mole ratio was increased from 0.25:1 to 1:1.

Data set [4] relates to P. Aeruginosa and E. Aerogenes. Description: Example 5: pulp slurry bactericidal efficacy of NaOCl with N-hydrogen compounds (1:1). It counts as cell-based. The note with it: for log reduction of bacteria: 5 ppm halogen; for log reduction of bacteria / efficacy enhancement over sodium hypochlorite alone: Example 5; for efficacy enhancement over sodium hypochlorite alone / Final Bacteria: NaOCl to N-hydrogen compound 1:1 molar. As for the experimental part: as §1
(§4) The conditions were the same as those of Example 1. The molar ratio of the NaOCl to N-hydrogen compound was 1:1.

A short description of data set [5]: Example 5: final total halogen in pulp slurry with N-hydrogen compounds. In kind it is physicochemical. The note with it: for % Residual Halogen / Total Halogen Final: NaOCl to N-hydrogen compound 1:1 molar. As for the experimental part:
as §1, §4

In the next data set the test system is bacteria. The note with it: residual chlorine concentrations of 1.6 ppm as Cl2; U.S. Pat. No. 3,328,294; cited from earlier work.
Data set [6] can be described thus: Example 3: final total halogen in preinoculated pulp slurry. It counts as physicochemical. The note with it: pulp inoculated 5 minutes prior to biocide. As for the experimental part:
as §1, §3

Data set [7] in a line: Example 1: final total halogen in pulp slurry (DPD analyses). In kind it is physicochemical. The note with it: 3 hours after inoculation; for Total Halogen Final: 1.3% aspen pulp slurry pH 5.0-5.5; for % Residual Halogen: pulp slurry pH 5.0-5.5. As for the experimental part: as §1
Data set [8] concerns P. Aeruginosa and E. Aerogenes. Kind of data set: Example 7: pulp slurry bactericidal efficacy of N-halohydantoin compound. It counts as cell-based. The note with it: conditions of Example 1. As for the experimental part: as §1
(§5) Specifically, Dantochlor®, a commercial halogenated hydantoin containing predominantly dichlorodimethylhydantoin and dichloroethylmethylhydantoin was used. The conditions were the same as those of Example 1.

Data set [9] is described as follows: Example 4: halogen consumption in non-inoculated pulp slurry vs NaOCl:DMH molar ratio. It counts as physicochemical. The note with it: initial total halogen 25.6 ppm as Cl2; pulp slurry not inoculated. As for the experimental part:
as §1, §2
The experimental conditions were the same as those of Example 2, except that the pulp slurry was not inoculated with bacteria.

A short description of data set [10]: Example 2: final total halogen in DMH-treated pulp slurry. In kind it is physicochemical. The note with it: NaOCl added to pulp slurry (DMH-treated for 1:1 system). As for the experimental part: as §1, §2
Data set [11] can be described thus: Example 7: final total halogen in pulp slurry. In kind it is physicochemical. The note with it: conditions of Example 1. As for the experimental part:
as §1, §5

[12] abbreviates: initial total halogen 1.0 ppm as Cl2.
The mark [13] stands for this setting: initial total halogen 3.0 ppm as Cl2.
Setting [14] is: initial total halogen 5.0 ppm as Cl2.
[15] abbreviates: initial total halogen 7.5 ppm as Cl2.
The mark [16] stands for this setting: initial total halogen 10 ppm as Cl2.
The mark [17] stands for this setting: initial total halogen 0.8 ppm as Cl2.
Where [18] appears, read: initial total halogen 3.4 ppm as Cl2.
The mark [19] stands for this setting: initial total halogen 16.3 ppm as Cl2.
[20] abbreviates: initial total halogen 3 ppm as Cl2.
Where [21] appears, read: initial total halogen 5 ppm as Cl2.
[22] abbreviates: initial total halogen 15 ppm as Cl2.

The structures appear in SMILES notation. A value given as a limit tells only on which side of the number the result lay.

As for `CC1(C)NC(=O)NC1=O` [DMH, 5,5-dimethylhydantoin], the “increase in efficacy of NaOCl in the presence of DMH” value is recorded as “fivefold” in data set [1] (1 ppm halogen with DMH equivalent to 5 ppm halogen alone, Example 1) and “twofold” in [2] (3 ppm with DMH vs 5 ppm in its absence, Example 2). Moreover, in [2] (initial halogen concentration 3 ppm, in the presence of DMH, Example 2), the “log reduction in bacteria concentration” value worked out at 2 log. Besides, the “log reduction of bacteria” value in data set [3] (dosage 0.8 ppm halogen, in the presence of DMH, preinoculated samples, Example 3) is recorded as 3 log.

In the case of `CCC1(C)NC(=O)NC1=O` (stereo not drawn) [MEH, 5-ethyl-5-methylhydantoin], in data set [4], the “log reduction of bacteria” value is reported as 3 log and the “efficacy enhancement over sodium hypochlorite alone” value was “dramatically increased NaOCl efficacy”. Further, the “mitigation of halogen decomposition” value in data set [5] (compared with cyanuric acid, Example 5) is on record as “greatest mitigation of halogen decomposition”.

For the molecule `O=S(=O)(O)NCl` [N-chlorosulfamate], in the data set on bacteria, the bacterial concentrations achieved is reported as 10^3 cfu/ml.

Turning to `[Na+].[O-]Cl` [NaOCl, sodium hypochlorite], the “Final Bacteria” value is given as 10^5 cfu/ml in [1] (setting [12]); 10^4 cfu/ml in data set [1] (setting [13]); “≦10^3 cfu/ml” in data set [1] (setting [14]); “≦10^3 cfu/ml” in data set [1] (setting [15]); “≦10^3 cfu/ml” in data set [1] (setting [16]); 10^5 cfu/ml in data set [2] (setting [20]). The “Final Bacteria” value is 10^4 cfu/ml in data set [2] (setting [21]); <10^3 cfu/ml in data set [2] (setting [15]); <10^3 cfu/ml in [2] (setting [16]); <10^3 cfu/ml in [2] (setting [22]); 10^6 cfu/ml in data set [4] (setting [12]); 10^5 cfu/ml in [4] (setting [13]). Moreover, the “Final Bacteria” value in data set [4] (setting [14]) was 10^5 cfu/ml; in data set [8] (setting [14]), “≦10^3 cfu/ml”; in [8] (setting [15]), “≦10^3 cfu/ml”; in data set [3] (setting [17]) it was 10^4 cfu/ml; in data set [3] (setting [18]), <10^3 cfu/ml; in data set [3] (setting [19]), <10^3 cfu/ml. For the same molecule, the “% Residual Halogen” value is 1.3% in data set [6] (setting [17]); 1.0% in data set [6] (setting [18]); 2.1% in data set [6] (setting [19]); 0% in [7] (setting [12]); 0% in data set [7] (setting [13]); 0% in data set [7] (setting [14]). The “% Residual Halogen” value in data set [7] (setting [15]) is 0.5%; in [7] (setting [16]), 0.8%; in [5] (setting [12]) it was 0.0%; in data set [5] (setting [13]), 0.7%; in [5] (setting [14]) it was 0.6%; in data set [9], 0.4%. In addition, the “% Residual Halogen” value in [10] (setting [20]) was 0.0%; in data set [10] (setting [21]) it was 0.4%; in data set [10] (setting [15]) it was 0.5%; in [10] (setting [16]), 0.4%; in data set [10] (setting [22]), 0.7%; in data set [11] (setting [14]), 0.4%. The “% Residual Halogen” value in data set [11] (setting [15]) amounted to 1%. Moreover, the “Total Halogen Final” value in [6] (setting [17]) came to 0.01 ppm as Cl2; in data set [6] (setting [18]) it was 0.03 ppm as Cl2; in data set [6] (setting [19]), 0.34 ppm as Cl2; in data set [7] (setting [12]) it was 0.00 ppm as Cl2; in [7] (setting [13]), 0.00 ppm as Cl2; in data set [7] (setting [14]) it was 0.00 ppm as Cl2. For the same molecule, the “Total Halogen Final” value amounted to 0.04 ppm as Cl2 in [7] (setting [15]); 0.08 ppm as Cl2 in [7] (setting [16]); 0.00 ppm as Cl2 in data set [5] (setting [12]); 0.02 ppm as Cl2 in data set [5] (setting [13]); 0.03 ppm as Cl2 in data set [5] (setting [14]); 0.11 ppm as Cl2 in data set [9]. The “Total Halogen Final” value stood at 0.00 ppm as Cl2 in data set [10] (setting [20]); 0.02 ppm as Cl2 in data set [10] (setting [21]); 0.06 ppm as Cl2 in data set [10] (setting [15]); 0.04 ppm as Cl2 in [10] (setting [16]); 0.11 ppm as Cl2 in [10] (setting [22]); 0.02 ppm as Cl2 in data set [11] (setting [14]). In data set [11] (setting [15]), the “Total Halogen Final” value was 0.05 ppm as Cl2. Moreover, the “log reduction of bacteria” value in [4] stood at 1 log.

As to `NS(=O)(=O)O` [Sulfamic acid, sulfamic acid], in data set [4], the “efficacy enhancement over sodium hypochlorite alone” value was “no efficacy enhancement”.

The values above are taken from patent publication USRE39021E1, “Hydantoin-enhanced halogen efficacy in pulp and paper applications” (Lonza Inc., priority 1994, dated 2006).
